{"source": "patent US20120283217A1", "about": "“MODULATORS OF AMYLOID-BETA PRODUCTION” (SATORI PHARMACEUTICALS, INC., priority 2006, published 2012)"}
{"units": {"melting point": "°C"}}
{"smiles": "C/C=C1/CCC2C3CC=C4C[C@@H](O)CC[C@]4(C)C3CC[C@]12C", "note": "(stereo partly shown)", "melting point": "168 to 170"}
{"smiles": "C/C=C1/C(O)CC2C3CC=C4C[C@@H](O)CC[C@]4(C)C3CC[C@]12C", "note": "(stereo partly shown)", "melting point": "151 to 154"}
{"smiles": "C/C=C1/C(=O)CC2C3CC=C4C[C@@H](O)CC[C@]4(C)C3CC[C@]12C", "note": "(stereo partly shown)", "melting point": "124 to 126"}
{"smiles": "C[C@H](C#N)[C@H]1C(=O)C[C@H]2[C@@H]3CC=C4C[C@@H](O)CC[C@]4(C)[C@H]3CC[C@]12C", "melting point": "124 to 126"}
{"smiles": "C=C[C@@H](C)[C@H]1C(=O)CC2C3CC=C4C[C@@H](O)CC[C@]4(C)C3CC[C@@]21C", "note": "(stereo partly shown)", "melting point": "125 to 127"}
{"smiles": "C=C[C@@H](C)[C@H]1[C@H](O)C[C@H]2[C@@H]3CC=C4C[C@@H](O[Si](C)(C)C(C)(C)C)CC[C@]4(C)[C@H]3CC[C@]12C", "melting point": "156 to 158"}
{"smiles": "C=C[C@@H](C)[C@H]1C2(CC3C4CC=C5C[C@@H](O[Si](C)(C)C(C)(C)C)CC[C@]5(C)C4CC[C@@]31C)OCCO2", "note": "(stereo partly shown)", "melting point": "112 to 114"}
{"smiles": "C[C@H](C(O)CO)C1C(=O)C[C@H]2[C@@H]3CC=C4C[C@@H](O[Si](C)(C)C(C)(C)C)CC[C@]4(C)[C@H]3CC[C@]12C", "note": "(stereo partly shown)", "melting point": "172 to 175"}
{"smiles": "C[C@H](C1CO1)[C@H]1C(=O)C[C@H]2[C@@H]3CC=C4C[C@@H](O[Si](C)(C)C(C)(C)C)CC[C@]4(C)[C@H]3CC[C@]12C", "note": "(stereo partly shown)", "melting point": "103 to 104"}
{"smiles": "C/C=C1\\C(=O)C[C@H]2[C@@H]3CC=C4C[C@@H](O)CC[C@]4(C)[C@H]3CC[C@]12C", "melting point": "112 to 113"}
{"smiles": "CC(=O)O[C@H]1CC[C@]23C[C@]24CC[C@]2(C)[C@@H]([C@H](C)CCC5(C(C)C)CO5)CC[C@@]2(C)[C@@H]4CC[C@H]3C1(C)C", "note": "(stereo partly shown)", "melting point": "129 to 131"}
{"smiles": "CC(=O)O[C@H]1CC[C@]23C[C@]24CC[C@]2(C)[C@@H]([C@H](C)CCC5OC5(C)C)CC[C@@]2(C)[C@@H]4CC[C@H]3C1(C)C", "note": "(stereo partly shown)", "melting point": "141 to 143"}
{"smiles": "C=C[C@@H](C)[C@H]1CC[C@@]2(C)[C@@H]3CC[C@H]4C(C)(C)[C@@H](OC(C)=O)CC[C@@]45C[C@@]35CC[C@]12C", "melting point": "145 to 147"}
{"smiles": "CC(=O)O[C@H]1CC[C@]23C[C@]24CC[C@]2(C)[C@@H]([C@H](C)CCC(=O)C(F)(F)F)CC[C@@]2(C)[C@@H]4CC[C@H]3C1(C)C", "melting point": "133 to 135"}
{"smiles": "CC(=O)O[C@H]1CC[C@]23C[C@]24CC[C@]2(C)[C@@H]([C@H](C)CCC(O)C(C)C)CC[C@@]2(C)[C@@H]4CC[C@H]3C1(C)C", "note": "(stereo partly shown)", "melting point": "126 to 128"}
{"smiles": "CC(=O)O[C@H]1CC[C@]2(C)C3CC[C@]4(C)[C@@H]([C@H](C)CC(=O)O)CC[C@@]4(C)C3CCC2C1(C)C", "note": "(stereo partly shown)", "melting point": "203 to 205"}
{"smiles": "COC(=O)C(=O)C[C@@H](C)[C@H]1CC[C@@]2(C)C3CCC4C(C)(C)[C@@H](OC(C)=O)CC[C@]4(C)C3CC[C@]12C", "note": "(stereo partly shown)", "melting point": "125 to 127"}
{"smiles": "CC(C)(C)[Si](C)(C)O[C@H]1CC[C@@]2(C)[C@@H](CC[C@@H]3[C@@H]2CC[C@]2(C)C(=O)CC[C@@H]32)C1", "melting point": "159 to 162"}
{"smiles": "C=C[C@@H](C)[C@H]1C(=O)C[C@H]2[C@@H]3CC[C@H]4C[C@@H](O[Si](C)(C)C(C)(C)C)CC[C@]4(C)[C@H]3CC[C@]12C", "melting point": "132 to 134"}
{"smiles": "C/C=C1\\C(=O)C[C@H]2[C@@H]3CC=C4C[C@@H](O[Si](C)(C)C(C)(C)C)CC[C@]4(C)[C@H]3CC[C@]12C", "melting point": "138 to 142"}
{"smiles": "C/C=C1/CC[C@H]2[C@@H]3CC[C@H]4C[C@@H](O[Si](C)(C)C(C)(C)C)CC[C@]4(C)[C@H]3CC[C@]12C", "note": "(stereo in doubt)", "melting point": "136 to 137"}
{"smiles": "C/C=C1/[C@H](O)C[C@H]2[C@@H]3CC[C@H]4C[C@@H](O[Si](C)(C)C(C)(C)C)CC[C@]4(C)[C@H]3CC[C@]12C", "note": "(stereo in doubt)", "melting point": "145 to 147"}
{"smiles": "C/C=C1/C(=O)C[C@H]2[C@@H]3CC[C@H]4C[C@@H](O[Si](C)(C)C(C)(C)C)CC[C@]4(C)[C@H]3CC[C@]12C", "note": "(stereo in doubt)", "melting point": "210 to 212"}
{"smiles": "CC(=O)O[C@H]1CC[C@]23C[C@]24CC[C@]2(C)[C@@H]([C@H](C)CCC(=O)O)CC[C@@]2(C)C4CCC3C1(C)C", "note": "(stereo in doubt) [Compound I-4, 3-β-O-acetyl-25,26,27-Trinorcycloartan-24-oic acid]", "melting point": "201 to 212"}
{"smiles": "C/C=C1/C(O)CC2C3CC=C4C[C@@H](O[Si](C)(C)C(C)(C)C)CC[C@]4(C)C3CC[C@]12C", "note": "(stereo in doubt) [Compound I-7]", "melting point": "137 to 139"}
{"smiles": "CC(C#N)[C@H]1[C@@H](O)CC2C3CC=C4C[C@@H](O[Si](C)(C)C(C)(C)C)CC[C@]4(C)C3CC[C@@]21C", "note": "(stereo in doubt) [Compound I-10]", "melting point": "290 to 292"}
{"smiles": "CC(=O)O[C@H]1CC[C@]23C[C@]24CC[C@]2(C)[C@@H]([C@H](C)CC(=O)O)CC[C@@]2(C)C4CCC3C1(C)C", "note": "(stereo in doubt) [Compound I-17, 3β-Acetoxy-9,19-Cyclo-4,4,14-trimethyl-24-norchol-23-oic acid]", "melting point": "222 to 224"}
{"smiles": "CC(=O)O[C@H]1CC[C@]23C[C@]24CC[C@]2(C)[C@@H]([C@H](C)CC(=O)C(F)(F)F)CC[C@@]2(C)C4CCC3C1(C)C", "note": "(stereo in doubt) [Compound I-18, 3β-Acetoxy-9,19-Cyclo-4,4,14-trimethyl-23-oxo-24-trifluorocholane]", "melting point": "170 to 173"}
{"smiles": "CC(=O)O[C@H]1CC[C@]23C[C@]24CC[C@]2(C)[C@@H]([C@H](C)CC(=O)C(C#N)=P(c5ccccc5)(c5ccccc5)c5ccccc5)CC[C@@]2(C)C4CCC3C1(C)C", "note": "(stereo in doubt) [Compound I-19]", "melting point": "203 to 205"}
{"smiles": "COC(=O)C(=O)C[C@@H](C)[C@H]1CC[C@@]2(C)C3CCC4C(C)(C)[C@@H](OC(C)=O)CC[C@@]45C[C@@]35CC[C@]12C", "note": "(stereo in doubt) [Compound I-20]", "melting point": "120 to 122"}
{"smiles": "CC(=O)O[C@H]1CC[C@]23C[C@]24CC[C@]2(C)[C@@H]([C@H](C)CCC(=O)C(C)C)CC[C@@]2(C)C4CCC3C1(C)C", "note": "(stereo partly drawn) [Compound I-3, 24-Oxocycloartanol-3-β-O-acetate]", "melting point": "119 to 121"}
{"smiles": "C/C=C1/CC[C@H]2[C@@H]3CC=C4C[C@@H](O[Si](C)(C)C(C)(C)C)CC[C@]4(C)[C@H]3CC[C@]12C", "note": "[Compound I-6]", "melting point": "128 to 130"}
{"smiles": "C/C=C1/C(=O)C[C@H]2[C@@H]3CC=C4C[C@@H](O[Si](C)(C)C(C)(C)C)CC[C@]4(C)[C@H]3CC[C@]12C", "note": "[Compound I-8]", "melting point": "161 to 163"}
{"smiles": "CC(C)(C)[Si](C)(C)O[C@H]1CC[C@@]2(C)C(=CC[C@@H]3[C@@H]2CC[C@]2(C)C(=O)CC[C@@H]32)C1", "note": "[Compound I-13]", "melting point": "150 to 152"}
